Results published in patent US10759785B2, “Compounds” (ENTERPRISE THERAPEUTICS LIMITED, priority 2016, dated 2020).

biological target: T1, ENaC (Homo sapiens, UniProt P37088+P51168+P51170); test: Short circuit current assay to determine ENaC blocker potency in human bronchial epithelial cells; assay type: cell-based; conditions: 50% inhibition of total amiloride-sensitive ISC, HBECs, apical addition; read-out: Averages. ENaC Ic50 μm Avg
T1 construct: host or cells: primary human bronchial epithelial cells (HBECs) differentiated at an air-liquid interface
T1 sequence (P37088 1-669): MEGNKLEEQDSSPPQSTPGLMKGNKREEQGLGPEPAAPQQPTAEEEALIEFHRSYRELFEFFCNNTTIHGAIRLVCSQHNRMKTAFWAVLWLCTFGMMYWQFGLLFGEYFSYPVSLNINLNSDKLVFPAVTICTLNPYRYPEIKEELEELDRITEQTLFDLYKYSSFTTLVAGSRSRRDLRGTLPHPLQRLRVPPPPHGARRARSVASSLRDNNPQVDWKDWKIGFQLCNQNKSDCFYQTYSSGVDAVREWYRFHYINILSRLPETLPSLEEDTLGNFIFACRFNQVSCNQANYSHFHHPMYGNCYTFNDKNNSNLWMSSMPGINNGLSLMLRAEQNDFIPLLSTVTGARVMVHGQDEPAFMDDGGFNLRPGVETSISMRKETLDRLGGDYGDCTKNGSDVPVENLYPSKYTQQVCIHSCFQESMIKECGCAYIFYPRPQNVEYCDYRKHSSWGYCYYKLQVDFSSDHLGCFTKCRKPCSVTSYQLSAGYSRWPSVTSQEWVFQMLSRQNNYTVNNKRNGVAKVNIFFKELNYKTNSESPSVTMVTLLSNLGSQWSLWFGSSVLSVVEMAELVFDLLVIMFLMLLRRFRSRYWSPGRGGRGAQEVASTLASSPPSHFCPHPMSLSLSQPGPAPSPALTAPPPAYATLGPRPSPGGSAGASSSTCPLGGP
T1 sequence (P51168 1-640): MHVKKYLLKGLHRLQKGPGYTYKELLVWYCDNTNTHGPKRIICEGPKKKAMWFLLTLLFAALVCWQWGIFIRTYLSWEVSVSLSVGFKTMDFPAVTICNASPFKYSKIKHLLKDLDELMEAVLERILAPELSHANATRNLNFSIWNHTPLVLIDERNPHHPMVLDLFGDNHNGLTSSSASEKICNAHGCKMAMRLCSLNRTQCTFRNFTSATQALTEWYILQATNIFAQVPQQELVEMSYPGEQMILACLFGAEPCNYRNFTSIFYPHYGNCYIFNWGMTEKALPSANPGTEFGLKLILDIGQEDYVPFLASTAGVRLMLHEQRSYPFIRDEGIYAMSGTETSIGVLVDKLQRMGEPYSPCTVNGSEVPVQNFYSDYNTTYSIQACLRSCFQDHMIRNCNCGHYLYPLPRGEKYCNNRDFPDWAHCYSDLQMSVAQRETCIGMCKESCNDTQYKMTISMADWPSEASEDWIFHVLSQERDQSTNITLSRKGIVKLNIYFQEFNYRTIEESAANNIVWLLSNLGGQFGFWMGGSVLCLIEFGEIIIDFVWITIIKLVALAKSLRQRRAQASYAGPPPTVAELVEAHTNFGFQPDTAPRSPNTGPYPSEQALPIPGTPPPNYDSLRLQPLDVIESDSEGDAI
T1 sequence (P51170 1-649): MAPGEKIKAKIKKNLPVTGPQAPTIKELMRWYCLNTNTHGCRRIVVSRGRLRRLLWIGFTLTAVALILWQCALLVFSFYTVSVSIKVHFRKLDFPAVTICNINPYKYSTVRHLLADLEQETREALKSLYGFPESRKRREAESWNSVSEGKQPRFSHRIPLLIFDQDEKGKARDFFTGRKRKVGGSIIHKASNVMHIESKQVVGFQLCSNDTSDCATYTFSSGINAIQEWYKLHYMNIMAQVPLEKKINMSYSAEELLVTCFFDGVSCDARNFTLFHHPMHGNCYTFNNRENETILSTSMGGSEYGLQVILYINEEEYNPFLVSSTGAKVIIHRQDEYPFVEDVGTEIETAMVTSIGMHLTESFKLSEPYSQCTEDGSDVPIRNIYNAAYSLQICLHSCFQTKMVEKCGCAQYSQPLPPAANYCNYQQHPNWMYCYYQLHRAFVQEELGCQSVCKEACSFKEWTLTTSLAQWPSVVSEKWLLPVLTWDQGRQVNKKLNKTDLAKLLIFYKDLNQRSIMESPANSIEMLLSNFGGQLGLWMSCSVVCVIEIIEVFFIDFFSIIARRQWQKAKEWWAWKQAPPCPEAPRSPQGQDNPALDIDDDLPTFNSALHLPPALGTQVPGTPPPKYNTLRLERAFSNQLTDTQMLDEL
Experimental: Example 27—Short Circuit Current Assay to Determine ENaC Blocker Potency in Human Bronchial Epithelial Cells
Human bronchial epithelial cells (HBECs) (Lonza, UK) were cultured using a modification of the method described by Coote et al, (2008). Cells were seeded into plastic T-75 flasks and grown in Bronchial Epithelial Cell Growth Medium (BEGM) (Lonza, UK) supplemented with bovine pituitary extract (52 ng/mL), hydrocortisone (0.5 μg/mL), human recombinant Epidermal Growth Factor (0.5 ng/mL), epinephrine (0.5 ng/mL), transferrin (10 ng/mL), insulin (5 ng/mL), retinoic acid (0.1 ng/mL), triiodothyronine (6.5 ng/mL), gentamycin (50 μg/mL) and amphotericin-B (50 ng/mL). Medium was changed every 48 hours until cells were 90% confluent. Cells were then passaged and seeded (8.25×10^5 cells/insert) onto polycarbonate Snapwell™ inserts (Costar, UK) in differentiation media containing 50% DMEM in BGEM with the same supplements as above but without triiodothyronine and a final retinoic acid concentration of 50 nM (all-trans retinoic acid; Sigma-Aldrich, UK). Cells were maintained submerged for the first 7 days in culture after which time they were exposed to an apical air interface for the remainder of the culture period. From the first day of establishment of an ALI, HBEC were fed with a DMEM:HAMS F-12 (1:1) media containing 2% Ultroser G (Pall BioSepra, France) with gentamycin (50 μg/mL) and amphotericin B (50 ng/mL). Cells were used for short-circuit current assay between days 14-21 after the establishment of the ALI. At all stages of culture, cells were maintained at 37′C in 5% CO2 in an air incubator.
Short-Circuit Current (ISC) Measurements
Snapwell inserts were mounted in Costar Vertical Diffusion Chambers (Costar, UK) and were bathed with continuously gassed Ringer solution (5% CO2 in O2; pH 7.4) maintained at 37° C. containing (in mM): 120 NaCl, 25 NaHCO3, 3.3 KH2PO4, 0.8 K2HPO4, 1.2 CaCl2, 1.2 MgCl2 and 10 glucose. The solution osmolarity was always between 280-300 mOsm/kg H2O for all physiological salt solutions used. Cells were voltage clamped to 0 mV (model EVC4000, WPI). Transepithelial resistance (RT) was measured by applying a 2 mV pulse at 30 s intervals and calculating RT by Ohm's law. Data were recorded using a PowerLab workstation (ADInstruments, UK).
ENaC blocker compounds were added to the apical chamber from a 1000-fold stock solution (prepared in DMSO) to achieve a cumulative concentration response in terms of the inhibition of the basal ISC. At the completion of the concentration response, a supra-maximal concentration of amiloride (10 μM) was added. The concentration of test compound that induced a 50% inhibition of the total amiloride-sensitive ISC (IC50) was calculated using GraphPad Prism v6.05.

Row | IC50 | SMILES
1 | 2 nM | CCn1c(CNC(=O)c2nc(Br)cnc2N)[n+](CC)c2ccc(C(=O)OC)cc21.[I-] [Example 15, 2-{[(3-amino-6-bromopyrazin-2-yl)formamido]methyl}-1,3-diethyl-6-(methoxycarbonyl)-1H-1,3-benzodiazol-3-ium iodide]
2 | 1 nM | CCn1c(CNC(=O)c2nc(Br)cnc2N)[n+](CC)c2ccc(OC)cc21.O=C[O-] [Example 2, 2-{[(3-amino-6-bromopyrazin-2-yl)formamido]methyl}-1,3-diethyl-6-methoxy-1H-1,3-benzodiazol-3-ium formate]
3 | 2 nM | CCn1c(CNC(=O)c2nc(Br)cnc2N)[n+](C)c2ccc(Cl)cc21.O=CO.O=C[O-] [Example 11, 2-{[(3-amino-6-bromopyrazin-2-yl)formamido]methyl}-6-chloro-1-ethyl-3-methyl-1H-1,3-benzodiazol-3-ium formic acid formate]
4 | 4 nM | CCn1c(CNC(=O)c2nc(C)cnc2N)[n+](C)c2ccc(OC)cc21.[I-] [Example 7, 2-{[(3-amino-6-methylpyrazin-2-yl)formamido]methyl}-1-ethyl-6-methoxy-3-methyl-1H-1,3-benzodiazol-3-ium iodide]
5 | 3 nM | CCn1c(CNC(=O)c2nc(Br)cnc2N)[n+](C)c2ccc(OC(F)(F)F)cc21.O=C[O-] [Example 14, 2-{[(3-amino-6-bromopyrazin-2-yl)formamido]methyl}-1-ethyl-3-methyl-6-(trifluoromethoxy)-1H-1,3-benzodiazol-3-ium formate]
6 | 19 nM | CCn1c(CNC(=O)c2nc(Br)cnc2N)[n+](C)c2ccc(F)cc21.O=C[O-] [Example 12, 2-{[(3-amino-6-bromopyrazin-2-yl)formamido]methyl}-1-ethyl-6-fluoro-3-methyl-1H-1,3-benzodiazol-3-ium formate]
7 | 1 nM | CCn1c(CNC(=O)c2nc(Br)cnc2N)[n+](CCO)c2ccc(OC)cc21.O=C[O-] [Example 3, 2-{[(3-amino-6-bromopyrazin-2-yl)formamido]methyl}-1-ethyl-3-(2-hydroxyethyl)-6-methoxy-1H-1,3-benzodiazol-3-ium formate]
